The values below come from publication PMC10895676, “Antiviral Activity of Lipophilic Nucleoside Tetraphosphate Compounds” (Journal of Medicinal Chemistry, 2024).

Entries after “also recorded” stand apart in the source; their conditions may differ. Bounds are passed on as bounds.

One data set has as its target T1, HIV-RT (Human immunodeficiency virus type 1 group M subtype B, UniProt P03366).
T1 construct: HIV-RT HIV reverse transcriptase; purchased Roboklon
Kind of data set: Primer extension assay using HIV-RT. In kind it is biochemical. As to conditions: 30 min, 6 U HIV-RT, 37 °C. As to the method:
(§1) Figure 6 Primer extension assay using HIV-RT (A), human polymerases α (B), β (C), and γ (D). (Figure 6A). Primer extension assay using HIV-RT (30 min, 6U). Lane 1: (+) dATP, dCTP, dGTP, and TTP with HIV-RT. Lane 2: (−) dATP, dCTP, dGTP, and TTP without HIV-RT. Lane 3: TTP. […] Lane 5: δ-(C4; C18)-d4T4P 4d. […] Lane 7: δ-(C18)-d4T4P 20. Lane 8: δ-C-(C18)-d4T4P 24. Lane 9: d4T4P. Lane 10: d4TTP. Lane 11: d4TDP. HIV-RT assay reaction conditions: 50 mM Tris–HCl (pH 8.6), 10 mM MgCl2, 40 mM KCl, 250 μM dNTPs, HIV-RT (6 U), 0.20 μM DNA hybrid, primer-template-hybrid 0.32 mM in a reaction volume of 10 μL, incubated at 37 °C for 0.5 h, 80 °C for 7 min. Primer extension assays: 50 mA, 45 w for 4 h. (Figure 6B). For human DNA polymerase α assay (60 min, 2 U): Lane 1: (+) dATP, dCTP, dGTP, and TTP with human polymerase α. Lane 2: (−) dATP, dCTP, dGTP, and TTP without human polymerase α. Lane 3: TTP. […] Lane 5: δ-(C4; C18)-d4T4P 4d. […] Lane 7: δ-(C18)-d4T4P 20. Lane 8: δ-C-(C18)-d4T4P 24. Lane 9: d4T4P. Lane 10: d4TTP. Human DNA polymerase α assay conditions: 60 mM Tris–HCl (pH 8), 5 mM Mg(OAc)2, 100 mM KCl, 1.0 mM dithiothreitol, 0.1 mM spermine, 0.01% (w/v) bovine serum albumin, 250 μM dNTPs, 2 U human polymerase α, 0.20 μM DNA hybrid, and primer-template-hybrid 0.32 mM in a reaction volume of 10 μL, incubated at 37 °C for 1 h, 80 °C for 7 min. Primer extension assays: 50 mA, 45 w for 3 h. (Figure 6C). For human DNA polymerase β assay (60 min, 2 U): Lane 1: (+) dATP, dCTP, dGTP, and TTP with human polymerase β. Lane 2: (−) dATP, dCTP, dGTP, and TTP without human polymerase β. Lane 3: TTP. […] Lane 5: δ-(C4; C18)-d4T4P 4d. […] Lane 7: δ-(C18)-d4T4P 20. Lane 8: δ-C-(C18)-d4T4P 24. Lane 9: d4T4P. Lane 10: d4TTP. Human DNA polymerase β assay conditions: 50 mM Tris–HCl (pH 8.7), 10 mM Mg(OAc)2, 100 mM KCl, 1.0 mM dithiothreitol, 0.1 mM spermine, 0.01% (w/v) bovine serum albumin, 15% glycerol, 250 μM dNTPs, 2 U human DNA polymerase β, 0.20 μM DNA hybrid, and primer-template-hybrid 0.32 mM in a reaction volume of 10 μL, incubated at 37 °C for 1 h, 80 °C for 7 min. Primer extension assays: 50 mA, 45 w for 3 h. (Figure 6D), For the human DNA polymerase γ assay (120 min, 2 U): Lane 1: (+) dATP, dCTP, dGTP, and TTP with human polymerase γ. Lane 2: (−) dATP, dCTP, dGTP, and TTP without human polymerase γ. Lane 3: TTP. […] Lane 5: δ-(C4; C18)-d4T4P 4d. […] Lane 7: δ-(C18)-d4T4P 20. Lane 8: δ-C-(C18)-d4T4P 24. Lane 9: d4T4P. Lane 10: d4TTP. Human polymerase γ assay conditions: 60 mM Tris–HCl (pH 8), 5 mM Mg(OAc)2, 1.0 mM dithiothreitol, 0.1 mM spermine, 0.01% (w/v) bovine serum albumin, 250 μM dNTPs, 2 U human polymerase γ, 0.5 μM MnCl2, 0.20 μM DNA hybrid, primer-template-hybrid 0.32 mM in a reaction volume of 10 μL, incubated at 37 °C for 2 h, 80 °C for 7 min. Primer extension assays: 50 mA, 45 w for 3 h.
HIV-RT and human polymerases α, β, and γ were bought from Roboklon and Chimerx. The fluorescent-labeled primer and template were obtained from Metabion.
For the annealing of the primer/template mixture, 40 μL of the 10 μM primer and 60 μL of the 10 μM template were incubated for 5 min at 95 °C. Then, for optimal annealing, the temperature was reduced over a period of 2 h to 20 °C and incubated again for 20 min at 20 °C.
For the primer extension, the reaction mixture was incubated for 30 min for the HIV-RT, 60 min for the human DNA polymerase α, and 120 min for the human DNA polymerases β and γ at 37 °C, followed by 7 min at 80 °C.

For the next data set, the target named is T2, human DNA polymerase β (Homo sapiens, UniProt P06746).
T2 construct: purchased Chimerx
Kind of data set: Primer extension assay using human DNA polymerase β. In kind it is biochemical. The note with it: 60 min, 2 U, 37 °C.
From the text: Encouraged by the previously obtained results that γ-phosphate-modified-d4TDPs 3, γ-monoalkylated d4TTP derivatives as well as d4TDP were accepted as substrates by HIV-RT,[49],[50],[55],[59]−[61] δ-dialkylated d4T tetraphosphate analogues 4,5, δ-monoalkylated d4T tetraphosphate analogues 20 and 24 and d4T4P were investigated in primer extension assays in the presence of HIV-RT or the three different human DNA polymerases α, β and γ. D4TTP (for the compounds 4–9) and the natural thymidine triphosphate (TTP) were used as reference compounds.
as §1
HIV-RT and human polymerases α, β, and γ were bought from Roboklon and Chimerx. The fluorescent-labeled primer and template were obtained from Metabion. […]

The nature of data set [1]: Cytotoxicity, inhibition of CEM cell proliferation. As to conditions: human, CEM cells (CD4+ T-cells), read-out: toxicity CC50. In kind it is cell-based.
Data set [2] in a line: Chemical hydrolysis in aqueous buffers (PBS pH 7.3 / 8.0, citrate buffer pH 2.0), RP18-HPLC. Type of data set: physicochemical. As to conditions: phosphate buffered saline; 25 mM PBS, pH 7.3, 37 °C; read-out: PBS pH 7.3 t1/2 (converted). The protocol: All metabolite mixtures were analyzed and quantified by means of analytical RP18-HPLC (UV detection).
The solution was incubated at 37 °C in a thermomixer. […] for each extraction and stored at −30 °C. When testing, samples were warmed up to room temperature, and 25 or 20 μL of the liquid was taken and injected into the analytical RP-18-HPLC instrument. Further aliquots were taken for monitoring the kinetic hydrolysis.
5.88 g of citric acid and 3.58 g of NaCl were dissolved in 82 mL of hydrochloric acid (0.1 mol/L). Then, sodium hydroxide was added to adjust the pH to 2.0.

For data set [3], the system named is HIV-2 (ROD). Kind of data set: Anti-HIV replication assay, HIV-2 (ROD) in wild-type CEM/0 cells. In kind it is cell-based. As to conditions: Human immunodeficiency virus 2, CCRF-CEM, read-out: HIV-2 (ROD) EC50. As to the method: (§2) Inhibition of HIV-1(HE)- and HIV-2(ROD)-induced cytopathogenicity in wild-type CEM/0 CEM CD4^+ T-cells and thymidine kinase-deficient CEM/TK^– cell cultures was measured in microtiter 96-well plates containing ∼3 × 10^5 CEM cells/mL infected with 100 CCID50 of HIV per milliliter and containing appropriate dilutions of the test compounds. After 4–5 days of incubation at 37 °C in a CO2-controlled humidified atmosphere, virus-induced cellular effects and syncytia cell formation were examined microscopically.

Data set [4] deals with HIV-2 (ROD). Nature of the data set: Anti-HIV replication assay, HIV-2 (ROD) in thymidine kinase-deficient CEM/TK– cells. The note with it: Human immunodeficiency virus 2, CEM-TK(-), read-out: CEM/TK– HIV-2 (ROD) EC50. Type of data set: cell-based. The protocol: as §2
Data set [5] can be described thus: Cytotoxicity, inhibition of CEM/TK– cell proliferation. In kind it is cell-based. As to conditions: human, CEM/TK– cells (CD4+ T-cells), read-out: toxicity CC50.
The next data set relates to HIV-1 (HE). Nature of the data set: Anti-HIV replication assay, HIV-1 (HE) in wild-type CEM/0 cells. Type of data set: cell-based. The note with it: Human immunodeficiency virus 1, CCRF-CEM, read-out: HIV-1 (HE) EC50. As to the method: as §2, with “microscopically. The EC50 (50% effective concentration) was defined as the compound concentration required to inhibit HIV-induced giant cell formation by 50%.” for “microscopically.”

On to `Cc1cn(C2C=CC(COP(=O)(O)OP(=O)(O)O)O2)c(=O)[nH]c1=O` (stereo not shown) [d4TDP, reference compound], for which the “substrate for HIV-RT (primer extension)” value on HIV-RT was “good substrates”.
Regarding `Cc1cn([C@H]2C=C[C@@H](COP(=O)(O)OP(=O)(O)OP(=O)(O)O)O2)c(=O)[nH]c1=O` [d4TTP, d4T triphosphate, reference compound], the “substrate for HIV-RT (primer extension)” value on HIV-RT is on record as “incorporation of d4TMP was detected; also recorded: good substrates”. For the same molecule, the “substrate for human DNA polymerase β (primer extension)” value at human DNA polymerase β was “substrate”.
As a reminder, the CC50 is the concentration at which the toxic effect on the cells reaches its halfway point. In the case of `CCCCOP(=O)(OCCCC)OP(=O)(O)OP(=O)(O)OP(=O)(O)OC[C@@H]1C=C[C@H](n2cc(C)c(=O)[nH]c2=O)O1` [4a, δ-(Alkyl-C4; alkyl-C4)-d4T4P], the CC50 in data set [1] and in data set [5] was greater than 100 µM each time. Also, the half-life at 1.9 mM in data set [2] was 167 h. Also, the EC50 is 0.16 ± 0.04 µM in the data set with HIV-2 (ROD) [3], 14.8 ± 2.8 µM in the data set with HIV-2 (ROD) [4] and 0.22 ± 0.13 µM with HIV-1 (HE). Further, the “substrate for human DNA polymerase β (primer extension)” value at human DNA polymerase β was “substrate”.
